Experimental data reported in patent US20190309323A1, “PROMOTER WITH AN ENRICHED CYTOSINE-GUANINE DINUCLEOTIDE REGION, VECTORS, CELLULAR LINES, METHOD FOR PRODUCING RECOMBINANT PROTEIN” (UNIVERSIDAD DE CHILE, priority 2016, published 2019).

Test system: CHO-K1 cells
Assay: Transient transfection Dual-Glo luciferase assay (Luc/Ren)
Format: cell-based, Chinese hamster
Conditions: FIG. 9
Protocol: Furthermore, the effect of addition of the promoter on luciferase activity in transient transfections was determined. CHO-K1 cells were grown to reach 90% confluence were co-transfected using Lipofectamine CD (Invitrogen. EEU U), with the normalization vector pGL4.73 (Promega. USA) expressing Renilla luciferase reniformis (Ren), under the control of SV40 promoter, and with experimental vectors Seq1-Luc (SEQ ID No.: 2), Seq4-Luc (SEQ ID No.: 35) and Seq5-Luc (SEQ ID No.: 36) expressing Photinus pyralis luciferase (Luc), under the control of the promoters studied and pGL4.17 (base vector without promoter).
CHO-K1 cells were cultured in 24-well plates in DMEM-F12 medium (Gibco) supplemented with fetal bovine serum (FBS) (HyClone) 10%, at 37° C. and 5% CO2, inoculating 300,000 cells/mL for 24 hours, or up to between 80 to 90% confluency. […] To analyze the activity of the reporter gene transfections, the “Dual-Glo Luciferase Assay System (Promega. USA)” (Promega) was used following the manufacturer's instruction, where from cell lysate its measurable sequentially luciferase activity firefly expressed as reporters vectors and activity of renilla luciferase expressed by the normalizer vector. Both activities were mediated by quantifying luminiscence read on a Lumininometer, model Luminoskan ASECNT (Thermo Electronic Corporation). […]

| Molecule | relative luciferase activity in transient transfection |
| --- | --- |
| Seq5-Luc: reporter vector SEQ ID No. 36 under control of the minimal portion of CMV or Core CMV [reference compound] | lowest activity |
| RegCG: 1147 bp fragment of Cricetulus griseus β-actin promoter rich in cytosine-guanine dinucleotides, SEQ ID NO. 5 (nucleic acid, Promoter) DNA: GGAGAGGGGGTAAAAAAATGCTGCACTGTGCGGCTAGGCCGGTGAGTGAGCGGCGCGGAGCCAATCAGCGCTCGCCGTTCCGAAAGTTGCCTTTTATGGCTCGAGTGGCCGCTGTGGCGTCCTATAAAACCCGGCGGCGCAACGCGCAGCCACTGTCGAGTCCGCGTCCACCCGCGAGCACAGGCCTTTCGCAGCTCTTTCTTCGCCGCTCCACACCCGCCACCAGGTAAGCAGGGACAACAGGCCCAGCCGGCCACAGCCCTCCCGTGGGCAGTGACCGCGCTGCAGGGTCGCGGGGGACACTCGGCGCGGACACCGGGGAAGGCTGGAGGGTGGTGCCGGGCCGCGGAGCGGACACTTTCAGATCCAACTTTCAGTCCAGGGTGTAGACCCTTTACAGCCGCATTGCCACGGTGTAGACACCGGTGGACCCGCTCTGGCTCAGAGCACGCGGCTTGGGGGAACCCATTAGGGTCGCAGTGTGGGCGCTATGAGAGCCGATGCAGCTTTCGGGTGTTGAACCGTATCTGCCCACCTTGGGGGGAGGACACAAGGTCGGGAGCCAAACGCCACGATCATGCCTTGGTGGCCCATGGGTCTTTGTCTAAACCGGTTTGCCCATTTGGCTTGCCGGGCGGGCGGGCGCGGCGGGCCCGGCTCGGCCGGGTTGGGGGCTGGGTTGCCACTGCGCTTGCGCGCTCTATGGCTGGGTATTGGGGCGCGTGCACGCTGGGGAGGGAGCCCTTCCTCTTCCCCCTCTCCCAAGTTAAACTTGCGCGTGCGTATTGAGACTTGGAGCGCGGCCACCGGGGTTGGGCGAGGGCGGGGCCGTTGTCCGGAAGGGGCGGGGTCGCAGCGGCTTCGGGGCGCCTGCTCGCGCTTCCTGCTGGGTGTGGTCGCCTCCCGCGCGCGCACTAGCCGCCCGCCGGCGGGGCGAAGGCGGGGCTTGCGCCCGTTTGGGGAGGGGGCGGAGGCCTGGCTTCCTGCCGTGGGGCCGCCTCCGGACCAGCGTTTGCCTCTTATGGTAATAACGCGGCCGGCCTGGGCTTCCTTTGTCCCCTGAGTTTGGGCGCGCGCCCCCTGGCGGCCCGAGGCCGCGGCTTGCCGGAAGTGGGCAGGGCGGCAGCGGCTGCGCCTAGTGGCCCGCCAGTGACCGCGACCCTCTTTTGTGCCCTGATATAGTTCGCC | has transcriptional activity |
